Several values for one entry are separate records, joined by “and”; a condition that tells them apart may be missing. Equal entries are not always repeated. Marks after values point to notes of the source that are not given here.
Tests used:
[1] = tested on: pregnant SWV mice; experiment: Maternal body weight and weight gain, teratogenicity study; format: in vivo, mouse; details: mean ± SD
[2] = tested on: pregnant SWV mice; experiment: Pregnancy outcomes; format: in vivo, mouse; details: for Dead fetuses/litter / Fetus weight / Implantations/litter / Live fetuses/litter / Resorptions/litter: mean ± SD
[3] = tested on: SWV mouse fetuses; experiment: Skeletal examination of fetuses; format: in vivo
[4] = tested on: SWV mouse fetuses; details: mouse, in vivo
[5] = target: acyl-CoA synthetase 4; details: cited from earlier work
[6] = tested on: various animal models; details: cited from earlier work
[7] = tested on: histone deacetylase (HDAC); details: cited from earlier work
[8] = tested on: NMRI mice; details: injected on GD 8 with 3 mmol/kg; cited from earlier work
[9] = tested on: mouse; details: source not given; cited from earlier work
[10] = tested on: patients with bipolar disorder; details: Phase IIb; cited from earlier work
[11] = 1/3.28 of LD50 (VCD 304.6 mg/kg) p.o. GD 4–17
[12] = 1/4.36 of LD50 (RIS 14.5, VCD 229.2 mg/kg) p.o. GD 4–17
[13] = 1/6.54 of LD50 (RIS 9.6, OLA 32.1, VCD 152.8 mg/kg) p.o. GD 4–17

SMILES: CCC(C)C(CC)C(N)=O (stereo not drawn) [VCD, 2-ethyl-3-methylpentamide]
- Dams net weight gain [1, 11]: 8.6 ± 1.8 grams
- Dams weight GD 18 [1, 11]: 48.2 ± 2.9 grams
- Dams weight gain [1, 11]: 20.5 ± 3.5 grams
- Dams net weight gain [1, 12]: 7.8 ± 2.1 grams
- Dams weight GD 18 [1, 12]: 47.3 ± 4.2 grams
- Dams weight gain [1, 12]: 20.1 ± 2.9 grams
- Dams net weight gain [1, 13]: 7.9 ± 2.1 grams
- Dams weight GD 18 [1, 13]: 48.5 ± 3.4 grams
- Dams weight gain [1, 13]: 20.2 ± 3.0 grams
- Fetuses sex ratio F/M [2, 11]: 57/73
- Dead fetuses/litter [2, 11]: 0.1 ± 0.2
- Fetus weight [2, 11]: 0.91 ± 0.06 g
- Implantations/litter [2, 11]: 14.5 ± 1.7
- Live fetuses/litter [2, 11]: 13.2 ± 2.8
- Resorptions/litter [2, 11]: 1.2 ± 1.4
- Fetuses sex ratio F/M [2, 12]: 58/77
- Dead fetuses/litter [2, 12]: 0.1 ± 0.3
- Fetus weight [2, 12]: 0.90 ± 0.07 g
- Implantations/litter [2, 12]: 14.8 ± 1.6
- Live fetuses/litter [2, 12]: 13.7 ± 2.0
- Resorptions/litter [2, 12]: 0.9 ± 0.8
- Fetuses sex ratio F/M [2, 13]: 71/73
- Dead fetuses/litter [2, 13]: 0.2 ± 0.4
- Fetus weight [2, 13]: 0.91 ± 0.07 g
- Implantations/litter [2, 13]: 14.9 ± 1.7
- Live fetuses/litter [2, 13]: 13.8 ± 2.1
- Resorptions/litter [2, 13]: 1.0 ± 0.9
- All vertebra: incomplete ossification, affected fetuses [3, 11]: 0
- Cervical vertebra: ossified fusion of centrums, affected fetuses [3, 11]: 1/1
- Cervical vertebra: ossified fusion of centrums, affected litters [3, 11]: 1/1
- Fetuses with skeletal abnormalities, % [3, 11]: 8.6%
- Fibula: bent, affected fetuses [3, 11]: 0
- Metacarpal: absent ossification, affected fetuses [3, 11]: 1/1
- Metacarpal: absent ossification, affected litters [3, 11]: 1/1
- Metacarpal: incomplete ossification, affected fetuses [3, 11]: 0
- Metatarsal: absent ossification, affected fetuses [3, 11]: 1/1
- Metatarsal: absent ossification, affected litters [3, 11]: 1/1
- Metatarsal: incomplete ossification, affected fetuses [3, 11]: 0
- Ribs: absent 13th, affected fetuses [3, 11]: 0
- Ribs: branched, affected fetuses [3, 11]: 0
- Skull: incomplete ossification, affected fetuses [3, 11]: 0
- Skull: interparietal incomplete ossification, affected fetuses [3, 11]: 1/1
- Skull: interparietal incomplete ossification, affected litters [3, 11]: 1/1
- Skull: parietal incomplete ossification, affected fetuses [3, 11]: 0
- Skull: supraoccipital incomplete ossification, affected fetuses [3, 11]: 0
- Sternebra: absent ossification, affected fetuses [3, 11]: 1/1
- Sternebra: absent ossification, affected litters [3, 11]: 1/1
- Sternebra: incomplete ossification, affected fetuses [3, 11]: 1/1
- Sternebra: incomplete ossification, affected litters [3, 11]: 1/1
- Sternebra: misaligned, affected fetuses [3, 11]: 0
- Sternebra: misshapen, affected fetuses [3, 11]: 3
- Sternebra: misshapen, affected litters [3, 11]: 2
- Whole skeletal system: incomplete ossification, affected fetuses [3, 11]: 0
- All vertebra: incomplete ossification, affected fetuses [3, 12]: 0
- Cervical vertebra: ossified fusion of centrums, affected fetuses [3, 12]: 0
- Fibula: bent, affected fetuses [3, 12]: 1/1
- Fibula: bent, affected litters [3, 12]: 1/1
- Metacarpal: absent ossification, affected fetuses [3, 12]: 0
- Metacarpal: incomplete ossification, affected fetuses [3, 12]: 0
- Metatarsal: absent ossification, affected fetuses [3, 12]: 0
- Metatarsal: incomplete ossification, affected fetuses [3, 12]: 0
- Ribs: absent 13th, affected fetuses [3, 12]: 3/3
- Ribs: absent 13th, affected litters [3, 12]: 3/3
- Ribs: branched, affected fetuses [3, 12]: 1/1
- Ribs: branched, affected litters [3, 12]: 1/1
- Skull: incomplete ossification, affected fetuses [3, 12]: 1/1
- Skull: incomplete ossification, affected litters [3, 12]: 1/1
- Skull: interparietal incomplete ossification, affected fetuses [3, 12]: 0
- Skull: parietal incomplete ossification, affected fetuses [3, 12]: 0
- Skull: supraoccipital incomplete ossification, affected fetuses [3, 12]: 0
- Sternebra: absent ossification, affected fetuses [3, 12]: 0
- Sternebra: incomplete ossification, affected fetuses [3, 12]: 3
- Sternebra: incomplete ossification, affected litters [3, 12]: 2
- Sternebra: misaligned, affected fetuses [3, 12]: 0
- Sternebra: misshapen, affected fetuses [3, 12]: 6
- Sternebra: misshapen, affected litters [3, 12]: 4
- All vertebra: incomplete ossification, affected fetuses [3, 13]: 0
- Cervical vertebra: ossified fusion of centrums, affected fetuses [3, 13]: 0
- Fibula: bent, affected fetuses [3, 13]: 0
- Metacarpal: absent ossification, affected fetuses [3, 13]: 0
- Metacarpal: incomplete ossification, affected fetuses [3, 13]: 0
- Metatarsal: absent ossification, affected fetuses [3, 13]: 0
- Metatarsal: incomplete ossification, affected fetuses [3, 13]: 0
- Ribs: absent 13th, affected fetuses [3, 13]: 3
- Ribs: absent 13th, affected litters [3, 13]: 1
- Ribs: branched, affected fetuses [3, 13]: 1/1
- Ribs: branched, affected litters [3, 13]: 1/1
- Skull: incomplete ossification, affected fetuses [3, 13]: 6
- Skull: incomplete ossification, affected litters [3, 13]: 2
- Skull: interparietal incomplete ossification, affected fetuses [3, 13]: 1/1
- Skull: interparietal incomplete ossification, affected litters [3, 13]: 1/1
- Skull: parietal incomplete ossification, affected fetuses [3, 13]: 0
- Skull: supraoccipital incomplete ossification, affected fetuses [3, 13]: 1/1
- Skull: supraoccipital incomplete ossification, affected litters [3, 13]: 1/1
- Sternebra: absent ossification, affected fetuses [3, 13]: 2/2
- Sternebra: absent ossification, affected litters [3, 13]: 2/2
- Sternebra: incomplete ossification, affected fetuses [3, 13]: 0
- Sternebra: misaligned, affected fetuses [3, 13]: 1/1
- Sternebra: misaligned, affected litters [3, 13]: 1/1
- Sternebra: misshapen, affected fetuses [3, 13]: 0
- Fetuses with skeletal abnormalities, % ([3]; mouse, in vivo): 10.4% and 11.1%
- Whole skeletal system: incomplete ossification, affected fetuses ([3]; mouse, in vivo): 0
- Cleft palate, affected fetuses ([4]; female, SWV): 0
- Dilated renal pelvis, affected litters ([4]; female, SWV): 2/2
- Exencephaly, affected fetuses ([4]; female, SWV): 0
- Malposition stomach, affected litters ([4]; female, SWV): 1/1
- Right aortic arch, affected litters ([4]; female, SWV): 1/1 ^b
- Overall teratogenicity under the experimental conditions ([4]; po): did not show any teratogenic effect
- Ki, uncompetitive inhibition of acylation of arachidonic acid [5]: 6.38 mM
- Anticonvulsant potency relative to VPA [6]: 3–10 times
- Inhibition of HDACs [7]: does not inhibit
- Embryotoxicity [8]: did not induce any embryotoxicity
- LD50 mouse, oral [9]: 999 mg/kg
- Tolerated daily dose with minimal side effects [10]: 1500 mg
